In patent publication US20030134779A1, “Method and composition for treatment and/or prevention of antibiotic-resistant microorganism infections” (priority 2002, published 2003):

Experiments:
Format in all cases: cell-based, Staphylococcus aureus
S. aureus PC-1 = test: Bacterial growth in MHB
Method: (§1) The effect of LF or LFC at concentration sub-MICs alone or in combination with sub-MICs of antibiotics on bacterial growth rate of S. aureus, E. coli and K. pneumoniae was determined by monitoring bacterial cultures in MHB with the O.D.600 nm or by the count of colony forming unit per ml (cfu/ml). A volume of 2.5 ml of overnight cultures in MHB adjusted to 0.5-1 McFarland standard in saline were used to inoculate a final volume of 25 ml of fresh MHB containing the desired concentration of tested compounds. All flasks were then incubated at 37° C. with agitation (200 rpm) for 9 h. Aliquots were removed every hour to determine the culture turbidity using the spectrophotometer Philips PU 8800 (Pye Unican Ltd, Cambridge, UK). The combined antibiotic effect on bacterial growth was also determined using concentrations of LF in the presence of different concentrations of antibiotics. Briefly, a volume of 3 ml of fresh MHB containing desired concentration of drugs was adjusted to an optical density of 0.4 at 540 nm after an overnight culture. The culture was then incubated at 37° C with agitation (200 rpm). After incubation, aliquots were removed to determine the culture turbidity (OD540nm) or cfu/ml. To determine the influence of the level of iron on of the growth inhibition by the test compound, 5 μM of FeCl3 were added to the media.

S. aureus ATCC 25923 = test: Bacterial growth in MHB
Method: as §1

S. aureus strains = test: Disk diffusion susceptibility test and cefinase test; conditions: β-lactamase producing strains
Method: For quality control, disk diffusion susceptibility tests, as recommended by the National Committee for Clinical Laboratory Standard, were performed on all strains using standard disk of various antibiotics. After 18 h of incubation at 37° C., the diameter of the zone of complete inhibition of bacterial growth around each disk was measured. Isolates were categorized as sensitive or resistant for a given antibiotic using the recommended interpretative guidelines of the manufacturer.

S. aureus SHY97-4320 = test: Cell morphology by transmission electron microscopy
Method: Microorganisms were prepared for transmission electron microscopy by fixation with glutaraldehyde followed by ferritin labelling. This method allows good- preservation of capsular material. Briefly, bacterial cells grown in the presence or absence of antibiotics were fixed in cacodylate buffer (0.1 M, pH 7.0) containing 5% (v/v) glutaraldehyde, for 2 h at 20° C. Fixed microorganims were suspended in cacodylate buffer and allowed to react with the polycationic ferritin (Sigma Chemicals, St-Louis, Mo.; final concentration 1.0 mg/ml) for 30 min at 20° C. The reaction was slowed down by 10-fold dilution with buffer, and the microorganisms were centrifuged and washed three times in cacodylate buffer. Bacterial cells were then immobilized in 4% (w/v) agar, washed 5 times in cacodylate buffer and post-fixed with 2% (w/v) osmium tetroxide for 2 h. Washings were repeated as above, and the samples dehydrated in a graded series of acetone washes. Samples were then washed twice in propylene oxide and embedded in Spurr low-viscosity resin. Thin sections were post-stained with uranyl acetate and lead citrate and examined with an electron microscope (Philips 201) at an accelerating voltage of 60 kV.

[1] = tested on: β-lactamase (BlaZ) gene expression in S. aureus strain SHY97-4320; test: BlaZ gene expression, real-time quantitative RT-PCR, and total RNA
Method: Fresh MHB containing or not 8 μg/ml of penicillin G and/or 1 mg/ml of bovine LF (2×2 factorial design) was adjusted to an optical density at 540 nm of 0.04 with an overnight culture of S. aureus and then incubated at 37° C. with agitation (150 rpm). After 4 and 22-h of incubation, aliquots were removed to determine bacterial growth by viable count (colony forming unit per ml, cfu/ml), measuring the culture turbidity (OD540nm) with a spectrophotometer Philips PU and to measure β-lactamase activity in bacterial cells. Following culture under the same condition, bacterial cells were collected for RNA extraction.
Total bacterial RNA was prepared using the RNeasy minikit (Qiagen, Mississauga, ON, Canada). Washed bacteria were first treated with 50 μg/ml of lysostaphin (GramCracker, Ambion, Austin, Tex.) for 10 min at 37° C. and RNA was purified according to the manufacturer's protocol. Contaminating DNA was removed from total RNA by using 1 U of Rnase-free Dnase I (Gibco Life Technologies, Grand Island, N.Y.) in a 10 μl reaction mixture containing approximately 50 ng of total RNA per μl and 20mM Tris-HCl (pH 8.4), 2 mM MgCl2 and 50 mM KCl. The reaction mixture was incubated for 15 min at room temperature, and the Dnase I was inactivated by adding 1 μl of 25 mM EDTA to the mixture and incubating for 10 min at 65° C. before assessing quantity and purity. Amount of cellular RNA was then determined by measuring the OD260 nm and OD280 nm.
Real-Time fluorescence-based 5′ nuclease PCR which is a widely accepted method for measuring gene expression levels was used to quantify β-lactamase BlaZ RNA by RT-PCR on ABI Prism™ 7700 (TaqMan® ) sequence detector (PE Applied Biosystem, Foster City, Calif.). The forward primer, reverse.primer, and TaqMan probe for Real-Time RT-PCR amplification were designed with the PrimerExpress software (PE Applied Biosystem) to specifically amplify the. S. aureus BLAZ gene. Briefly, RNA (50 ng) was added to a 50 μl reaction mixture containing 25 μl of 2×RT-PCR One-Step Universal Master Mix, 1.25 μl of 40×MultiScribe and Rnase Inhibitor Mix, 4.5 μl of the forward primer (10 μM, 5′-[…]-3′, SEQ ID NO:3), 4.5 μl of the reverse primer (10 μM, 5′-[…]-3′, SEQ ID NO:4), and 1.25 μl of TaqMan probe (10 μM, 6FAM-[…]-TAMRA, SEQ ID NO:5). Reverse transcription with the recombinant Moloney Murine Leukemia Virus (M-MuLV) Reverse Transcriptase (0.25 U/μl) was conducted at 48° C. for 30 min. […] The cycle threshold value (CT), indicative of the quantity of target gene at which the fluorescence exceeds a pre-set threshold, was determined and compared to the CT of a standard curve containing known amounts of mRNA (1.1×10^2 to 1.1×10^9) from the BLAZ gene of S. aureus obtained by in vitro transcription. […]

[2] = sub-MIC penicillin G (1/4 to 1/16 MIC) with 1 mg/ml LF, P<0.01

SMILES: CC1(C)S[C@@H]2[C@H](NC(=O)Cc3ccccc3)C(=O)N2[C@H]1C(=O)O [penicillin G, Penicillin G]
- growth (S. aureus PC-1; penicillin G combined with 64 μg/ml LFC (⅛ MIC)): Complete growth inhibition
- growth rate (S. aureus PC-1; sub-MIC of penicillin G alone): did not significantly affect growth rate
- growth rate (S. aureus PC-1; [2]): important growth rate reductions
- growth (S. aureus ATCC 25923; penicillin G combined with 32 μg/ml LFC (⅛ MIC)): Complete growth inhibition
- growth rate (S. aureus ATCC 25923; [2]): important growth rate reductions
- susceptibility by standard disk diffusion and cefinase test (S. aureus strains): resistance
- cell morphology (S. aureus SHY97-4320; penicillin G 8 μg/ml alone, 4-h): no visible effect
- cell morphology (S. aureus SHY97-4320; penicillin G 8 μg/ml combined with LF 1 mg/ml): morphology changes were similar to that observed in the susceptible strain
- BlaZ total: total number of copies of BlaZ gene mRNA/ml of culture ([1]; LF 1 mg/ml and/or penicillin G): 174.9 × 10^5 copies/ml of culture
- BlaZ: number of copies of BlaZ gene mRNA/50 ng of mRNA ([1]; LF 1 mg/ml and/or penicillin G): 22.9 × 10^4 copies/50 ng of mRNA
- RNA ([1]; adjusted for an OD540nm of 1.0, LF 1 mg/ml and/or penicillin G): 3.22 ± 0.49 :g/ml
- increase in the number of copies of the BlaZ mRNA per ml of culture ([1]; penicillin G added to the growth medium, P<0.01): 28 fold
